We go through 16 molecules from patent US20240238425A1, “HSD17B13 Inhibitors and/or Degraders” (Pfizer Inc., priority 2022, published 2024).

Structures can show the parent of a compound that is named as a salt.

The experiment concerns HiBiT-HSD17β13 fusion protein (N-terminal HiBiT-tagged HSD17β13 isoform D) in Huh7 HiBiT-HSD17β13 OE cells. The experiment can be described thus: Whole-cell Huh7-HSD17B13 HiBiT assay (degrader potency and maximal efficacy, luminescence readout). Conditions: 24 hour incubation, geometric mean, * = geometric mean for all forms tested (parent and salt forms); for DC50: read-out: Huh7_HIBIT-HSD17β13_DC50 GMean DC50; for Huh7_HIBIT-HSD17β13_DC50 GMean Asymptote Maximum: max. concentration 1 μM. Format: cell-based, human. The method, boiled down: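 Luminescence from lytic HiBiT detection tracked residual HiBiT-HSD17β13 (isoform D, N-terminal tag) in a stable Huh7 overexpressing clone after 24 h compound treatment at 37° C, 11 concentrations up to 1 μM final. Percent effect used DMSO (zero) and parental Huh7 (high) wells; four-parameter fit gave 50% degradation; viability checked by CellTiter-Glo.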

Regarding `Cc1ccc(C(=O)N2CCC3(CC2)CC(N2CCN(c4ncc(-c5ccc6cn(C7CCC(CNC(=O)c8cc(F)c(O)c(F)c8F)CC7)nc6c5)cn4)CC2)CO3)cc1N1CCC(=O)NC1=O` (centres unmarked) [Example 11, N-{[(1r,4r)-4-{6-[2-(4-{8-[3-(2,4-Dioxo-1,3-diazinan-1-yl)-4-methylbenzoyl]-1-oxa-8-azaspiro[4.5]decan-3-yl}piperazin-1-yl)pyrimidin-5-yl]-2H-indazol-2-yl}cyclohexyl]methyl}-2,3,5-trifluoro-4-hydroxybenzamide], the half-maximal degradation concentration (DC50) came out at 0.94 nM and the “Huh7_HIBIT-HSD17β13_DC50 GMean Asymptote Maximum” value was 81%.

Consider `O=C(O)C(F)(F)F.O=C1CCN(c2cnc3cc(CCCN4CCN(c5ncc(-c6ccc7cn(C8CCC(CNC(=O)c9cc(F)c(O)c(F)c9F)CC8)nc7c6)cn5)CC4)ccn23)C(=O)N1` (centres unmarked) [Example 19, N-{[(1r,4r)-4-{6-[2-(4-{3-[3-(2,4-Dioxo-1,3-diazinan-1-yl)imidazo[1,2-a]pyridin-7-yl]propyl}piperazin-1-yl)pyrimidin-5-yl]-2H-indazol-2-yl}cyclohexyl]methyl}-2,3,5-trifluoro-4-hydroxybenzamide, trifluoroacetate salt], for which the DC50 worked out at 0.73 nM and the “Huh7_HIBIT-HSD17β13_DC50 GMean Asymptote Maximum” value is recorded as 82%.

`Cc1ccc(C(=O)N2CCC(CCCCN3CCN(c4ccc5cn(C6CCC(CNC(=O)c7cc(F)c(O)c(F)c7F)CC6)nc5c4)CC3)CC2)cc1N1CCC(=O)NC1=O` (centres unmarked) [Example 20, N-{[(1r,4r)-4-{6-[4-(4-{1-[3-(2,4-Dioxo-1,3-diazinan-1-yl)-4-methylbenzoyl]piperidin-4-yl}butyl)piperazin-1-yl]-2H-indazol-2-yl}cyclohexyl]methyl}-2,3,5-trifluoro-4-hydroxybenzamide]: the DC50 came to 2.3 nM and the “Huh7_HIBIT-HSD17β13_DC50 GMean Asymptote Maximum” value was found to be 78%.

For `Cc1ccc(C(=O)N2CCC(CCCn3cc(-c4ccc5cn([C@H]6CC[C@H](CNC(=O)c7cc(F)c(O)c(F)c7)CC6)nc5c4)cn3)CC2)cc1N1CCC(=O)NC1=O` [Example 23, N-{[(1r,4r)-4-{6-[1-(3-{1-[3-(2,4-dioxo-1,3-diazinan-1-yl)-4-methylbenzoyl]piperidin-4-yl}propyl)-1H-pyrazol-4-yl]-2H-indazol-2-yl}cyclohexyl]methyl}-3,5-difluoro-4-hydroxybenzamide], the 50% degradation concentration (DC50) stood at 2.4 nM and the “Huh7_HIBIT-HSD17β13_DC50 GMean Asymptote Maximum” value was 75%.

With `O=C1CCN(c2cnn3cc(CCCN4CCOC5(CCN(c6ccc7cn([C@H]8CC[C@H](CNC(=O)c9cc(F)c(O)c(F)c9F)CC8)nc7c6)CC5)C4)ccc23)C(=O)N1` [Example 28, N-({(1r,4r)-4-[6-(4-{3-[3-(2,4-dioxo-1,3-diazinan-1-yl)pyrazolo[1,5-a]pyridin-6-yl]propyl}-1-oxa-4,9-diazaspiro[5.5]undecan-9-yl)-2H-indazol-2-yl]cyclohexyl}methyl)-2,3,5-trifluoro-4-hydroxybenzamide], the DC50 turned out to be 0.59 nM and the “Huh7_HIBIT-HSD17β13_DC50 GMean Asymptote Maximum” value amounted to 90%.

On to `O=C1CCN(c2cnn3cc(CCCN4CC(F)(F)C5(C4)CN(c4ccc6cn([C@H]7CC[C@H](CNC(=O)c8cc(F)c(O)c(F)c8F)CC7)nc6c4)C5)ccc23)C(=O)N1` [Example 29, N-({(1r,4r)-4-[6-(6-{3-[3-(2,4-dioxo-1,3-diazinan-1-yl)pyrazolo[1,5-a]pyridin-6-yl]propyl}-8,8-difluoro-2,6-diazaspiro[3.4]octan-2-yl)-2H-indazol-2-yl]cyclohexyl}methyl)-2,3,5-trifluoro-4-hydroxybenzamide], for which the DC50 stood at 1.9 nM and the “Huh7_HIBIT-HSD17β13_DC50 GMean Asymptote Maximum” value was 80%.

As for `Cc1ccc(C(=O)N2CCC(CCCN3CCN(c4ccc5cn([C@H]6CC[C@H](CNC(=O)c7cc(F)c(O)c(F)c7F)CC6)nc5c4)CC3)CC2)cc1N1CCC(=O)NC1=O` [Example 40, N-{[(1r,4r)-4-{6-[4-(3-{1-[3-(2,4-dioxo-1,3-diazinan-1-yl)-4-methylbenzoyl]piperidin-4-yl}propyl)piperazin-1-yl]-2H-indazol-2-yl}cyclohexyl]methyl}-2,3,5-trifluoro-4-hydroxybenzamide, trifluoroacetate salt], the half-maximal degradation concentration (DC50) was found to be 4.1 nM and the “Huh7_HIBIT-HSD17β13_DC50 GMean Asymptote Maximum” value is recorded as 74%.

With `Cc1ccc(C(=O)N2CCN(CC3CCN(c4ncc(-c5ccc6cn([C@H]7CC[C@H](CNC(=O)c8cc(F)c(O)c(F)c8F)CC7)nc6c5)cn4)CC3)CC2)cc1N1CCC(=O)NC1=O` [Example 42, N-{[(1r,4r)-4-(6-{2-[4-({4-[3-(2,4-dioxo-1,3-diazinan-1-yl)-4-methylbenzoyl]piperazin-1-yl}methyl)piperidin-1-yl]pyrimidin-5-yl}-2H-indazol-2-yl)cyclohexyl]methyl}-2,3,5-trifluoro-4-hydroxybenzamide, trifluoroacetate salt], the 50% degradation concentration (DC50) is 3.3 nM and the “Huh7_HIBIT-HSD17β13_DC50 GMean Asymptote Maximum” value was determined as 83%.

Regarding `Cc1ccc(C(=O)N2CCC(CN3CCN(c4ncc(-c5ccc6cn([C@H]7CC[C@H](CNC(=O)c8cc(F)c(O)c(F)c8F)CC7)nc6c5)cn4)CC3)CC2)cc1N1CCC(=O)NC1=O` [Example 45, N-{[(1r,4r)-4-(6-{2-[4-({1-[3-(2,4-dioxo-1,3-diazinan-1-yl)-4-methylbenzoyl]piperidin-4-yl}methyl)piperazin-1-yl]pyrimidin-5-yl}-2H-indazol-2-yl)cyclohexyl]methyl}-2,3,5-trifluoro-4-hydroxybenzamide, trifluoroacetate salt], the half-maximal degradation concentration (DC50) turned out to be 3.1 nM and the “Huh7_HIBIT-HSD17β13_DC50 GMean Asymptote Maximum” value is reported as 76%.

`O=C1CCN(c2cnc3cc(CCCN4CCN(c5ccc6cn([C@H]7CC[C@H](CNC(=O)c8cc(F)c(O)c(F)c8F)CC7)nc6c5)CC4)ccn23)C(=O)N1` [Example 47, N-({(1r,4r)-4-[6-(4-{3-[3-(2,4-dioxo-1,3-diazinan-1-yl)imidazo[1,2-a]pyridin-7-yl]propyl}piperazin-1-yl)-2H-indazol-2-yl]cyclohexyl}methyl)-2,3,5-trifluoro-4-hydroxybenzamide, trifluoroacetate salt]: the DC50 is 4.3 nM and the “Huh7_HIBIT-HSD17β13_DC50 GMean Asymptote Maximum” value was 78%.

For `O=C1CCN(c2cnn3cc(CCCN4CCN(c5ccc6cn([C@H]7CC[C@H](CNC(=O)c8cc(F)c(O)c(F)c8F)CC7)nc6c5)CC4)ccc23)C(=O)N1` [Example 48, N-({(1r,4r)-4-[6-(4-{3-[3-(2,4-dioxo-1,3-diazinan-1-yl)pyrazolo[1,5-a]pyridin-6-yl]propyl}piperazin-1-yl)-2H-indazol-2-yl]cyclohexyl}methyl)-2,3,5-trifluoro-4-hydroxybenzamide, trifluoroacetate salt], the DC50 stood at 1.5 nM and the “Huh7_HIBIT-HSD17β13_DC50 GMean Asymptote Maximum” value is 74%.

Regarding `Cc1ccc(C(=O)N2CCC(CN3CCN(c4ccc(-c5ccc6cn([C@H]7CC[C@H](CNC(=O)c8cc(F)c(O)c(F)c8F)CC7)nc6c5)nn4)CC3)CC2)cc1N1CCC(=O)NC1=O` [Example 49, N-{[(1r,4r)-4-(6-{6-[4-({1-[3-(2,4-dioxo-1,3-diazinan-1-yl)-4-methylbenzoyl]piperidin-4-yl}methyl)piperazin-1-yl]pyridazin-3-yl}-2H-indazol-2-yl)cyclohexyl]methyl}-2,3,5-trifluoro-4-hydroxybenzamide, trifluoroacetate salt], the DC50 stood at 3.7 nM and the “Huh7_HIBIT-HSD17β13_DC50 GMean Asymptote Maximum” value is 82%.

Turning to `O=C1CCN(c2cnc3cc(CN4CCN(c5ncc(-c6ccc7cn([C@H]8CC[C@H](CNC(=O)c9cc(F)c(O)c(F)c9F)CC8)nc7c6)cn5)CC4)ccn23)C(=O)N1` [Example 50, N-{[(1r,4r)-4-{6-[2-(4-{[3-(2,4-dioxo-1,3-diazinan-1-yl)imidazo[1,2-a]pyridin-7-yl]methyl}piperazin-1-yl)pyrimidin-5-yl]-2H-indazol-2-yl}cyclohexyl]methyl}-2,3,5-trifluoro-4-hydroxybenzamide, trifluoroacetate salt], the DC50 worked out at 0.91 nM and the “Huh7_HIBIT-HSD17β13_DC50 GMean Asymptote Maximum” value is 85%.

Turning to `O=C1CCN(c2cnn3cc(CCCN4CCN(c5ncc(-c6ccc7cn([C@H]8CC[C@H](CNC(=O)c9cc(F)c(O)c(F)c9F)CC8)nc7c6)cn5)CC4)ccc23)C(=O)N1` [Example 53, N-{[(1r,4r)-4-{6-[2-(4-{3-[3-(2,4-dioxo-1,3-diazinan-1-yl)pyrazolo[1,5-a]pyridin-6-yl]propyl}piperazin-1-yl)pyrimidin-5-yl]-2H-indazol-2-yl}cyclohexyl]methyl}-2,3,5-trifluoro-4-hydroxybenzamide, trifluoroacetate salt], the 50% degradation concentration (DC50) came to 0.78 nM and the “Huh7_HIBIT-HSD17β13_DC50 GMean Asymptote Maximum” value is on record as 77%.

`O=C1CCN(c2cnn3cc(CCN4CCN(c5ncc(-c6ccc7cn([C@H]8CC[C@H](CNC(=O)c9cc(F)c(O)c(F)c9F)CC8)nc7c6)cn5)CC4)ccc23)C(=O)N1` [Example 54, N-{[(1r,4r)-4-{6-[2-(4-{2-[3-(2,4-dioxo-1,3-diazinan-1-yl)pyrazolo[1,5-a]pyridin-6-yl]ethyl}piperazin-1-yl)pyrimidin-5-yl]-2H-indazol-2-yl}cyclohexyl]methyl}-2,3,5-trifluoro-4-hydroxybenzamide, trifluoroacetate salt]: the 50% degradation concentration (DC50) was 0.64 nM and the “Huh7_HIBIT-HSD17β13_DC50 GMean Asymptote Maximum” value turned out to be 83%.

`Cc1ccc(C(=O)N2CCC(OC3CCN(c4ncc(-c5ccc6cn([C@H]7CC[C@H](CNC(=O)c8cc(F)c(O)c(F)c8F)CC7)nc6c5)cn4)CC3)CC2)cc1N1CCC(=O)NC1=O` [Example 57, N-{[(1r,4r)-4-(6-{2-[4-({1-[3-(2,4-dioxo-1,3-diazinan-1-yl)-4-methylbenzoyl]piperidin-4-yl}oxy)piperidin-1-yl]pyrimidin-5-yl}-2H-indazol-2-yl)cyclohexyl]methyl}-2,3,5-trifluoro-4-hydroxybenzamide, trifluoroacetate salt]: the DC50 was determined as 4.8 nM and the “Huh7_HIBIT-HSD17β13_DC50 GMean Asymptote Maximum” value was found to be 76%.
